Laboratory results published in ChEMBL document CHEMBL4043115, “1,3-Oxazole-based selective picomolar inhibitors of cytosolic human carbonic anhydrase II alleviate ocular hypertension in rabbits: Potency is supported by X-ray crystallography of two leads” (Bioorg Med Chem, 2017).
The source made the active and inactive calls. No cut-off for these calls is given here.

Assays:
Format in all cases: functional
Oryctolagus cuniculus [1] = test: Ocular hypotensive activity in New Zealand albino rabbit eye assessed as reduction in hypertonic saline-induced intraocular pressure at 2% administered as eye drop measured at 60 mins post administration by applanation tonometry
Oryctolagus cuniculus [2] = test: Ocular hypotensive activity in New Zealand albino rabbit eye assessed as reduction in hypertonic saline-induced intraocular pressure at 1% administered as eye drop measured at 4 hrs post administration by applanation tonometry
Oryctolagus cuniculus [3] = test: Ocular hypotensive activity in New Zealand albino rabbit eye assessed as reduction in hypertonic saline-induced intraocular pressure at 1% administered as eye drop measured at 60 mins post administration by applanation tonometry

CCN[C@H]1C[C@H](C)S(=O)(=O)c2sc(S(N)(=O)=O)cc21
Activity (Oryctolagus cuniculus [1]): Active

NS(=O)(=O)c1ccc(-c2cnc(C(=O)N3CCOCC3)o2)s1
Activity (Oryctolagus cuniculus [2]): Active
Activity (Oryctolagus cuniculus [3]): Active

Cc1ncc(-c2ccc(S(N)(=O)=O)cc2)o1
Activity (Oryctolagus cuniculus [2]): Active
Activity (Oryctolagus cuniculus [3]): Active
